Measurements reported in publication PMC6377964 (Evidence-based Complementary and Alternative Medicine : eCAM, 2019).
“And” between values parts separate entries of the source, which are not always exact repeats. Equal entries are not always repeated. Where two headings read alike, the source gives them in different places.

Experiments:
[1] = Kinetic profiles of administered and generated stereoisomers in brain, CSF and plasma of rats after oral administration; format: in vivo, male Sprague-Dawley (SD) rats; details: for AUC0-180 min, brain / Cmax, brain: rat brain; for AUC(0-t) / Cmax / half-life / Kp / Tmax: male, Sprague-Dawley, po; for half-life: read-out: t 1/2, plasma; for Kp / Tmax: rat; for Tmax: plasma
Source text: Male Sprague-Dawley (SD) rats were provided by the Laboratory Animal Service Center of The Chinese University of Hong Kong, Hong Kong, China. Animals were housed in cages during the study period under standard conditions of temperature, humidity, and light. All animal experiments were approved by the Animal Ethics Committee of The Chinese University of Hong Kong.
One day before the experiment, the male SD rats (160-200 g) were fasted overnight with free access to water. […] The dosage was the same as used in the previous pharmacodynamics studies. […] The rats were exsanguinated by cardiac puncture under anesthesia, followed by collecting their CSF (about 100 μL) through a single puncture in the cisterna magna. Plasma was obtained by centrifugation of blood at 6,000 × g for 8 min at 4°C. After blood collection, the animals were perfused transcardially with normal saline until total blood volume was removed. Then, the whole brain was promptly collected, and the surface water was blotted dry with Kimwipes (Kimberly-Clark™). Blood vessels and meninges were carefully removed with forceps and the brain was weighted. All samples were stored at −20°C until analysis.
Brain homogenate was freshly prepared by homogenizing brain tissues in normal saline (1:2, w/v). Homogenization was conducted in an ice bath using the IKA T10 basic ULTRA-TURRAX Homogenizer for 20–30 s.
The biological samples including brain homogenate, CSF, and plasma (50 μL each) were deproteinized by adding 150 μL of acetonitrile (containing 20 ng/mL IS). After vortex mixing for 1 min, the mixture was centrifuged (20,000 × g) for 10 min at 4°C. After centrifugation, an aliquot (5 μL) of supernatant was subjected to the LC-MS/MS analysis.
The chromatographic separation was achieved on ZORBAX Eclipse Plus C18 column (2.1 × 100 mm, 1.8 μm, Agilent) maintained at 40°C temperature at a flow rate of 0.3 mL/min. A gradient mobile phase consisting of 0.1% formic acid in acetonitrile (A) and 0.1% formic acid in water (B) was eluted as follows: 0–1 min, A, 15–20%; 1–5 min, A, 20–25%; 5–7 min, A, 25–95%; 7–10 min, A held at 95% and returned to the initial condition (acetonitrile-water ratio 15 : 85) for a 3 min equilibration. The temperature of the auto-sampler was kept at 4°C.
All the data were processed using Agilent MassHunter Workstation Software Quantitative Analysis Version B.07.00/Build 7.0.457.0 (Agilent).
Kinetic parameters were calculated using the WinNonlin software (Version 4.0, Pharsight Corp, Mountain View, CA, US) employing a noncompartmental model approach. Epimerization ratio was calculated by AUC(generated stereoisomer)/(AUC(generated stereoisomer) + AUC(administered stereoisomer)) × 100%. The brain-to-plasma partition coefficient (Kp, Brain) was calculated by AUCBrain/AUCPlasma, and the CSF-to-plasma partition coefficient (Kp, CSF) was calculated by AUCCSF/AUCPlasma.
All the data in the study were expressed as mean ± SEM. Statistical analyses were performed using GraphPad Prism 6.0 (GraphPad Software Inc, San Diego, CA, US) using two tailed unpaired t-test for two groups comparison. Statistical significance was set at p value less than 0.05.

EphA4 = test system: EphA4; set-up: method as in PMID 24958880; details: cited from earlier work
[2] = set-up: method as in earlier work; details: cited from earlier work
[3] = mainly mediated by CYP3A4; cited from earlier work
[4] = orally administered; cited from earlier work
HT22 cell = details: cited from earlier work
[5] = test system: rats with Aβ25-35-induced cognitive deficits; details: oral 20 or 40 mg/kg for 3 weeks; cited from earlier work
APP/PS1 transgenic mice = test system: APP/PS1 transgenic mice; set-up: method as in PMID 24958880; details: oral 50 mg/kg/day for 3-4 weeks; cited from earlier work
P-gp efflux transporter = details: cited from earlier work
[6] = administered stereoisomer, 20 mg/kg p.o., rat CSF
[7] = administered stereoisomer, 20 mg/kg p.o.
[8] = generated stereoisomer after 20 mg/kg p.o. of the other stereoisomer
[9] = administered stereoisomer, 20 mg/kg p.o. of the same compound, rat plasma, mean ± SEM, read-out: AUC0-180 min, plasma (converted)
[10] = administered stereoisomer, 20 mg/kg p.o., rat CSF, read-out: AUC0-180 min, CSF (converted)
[11] = administered stereoisomer, 20 mg/kg p.o., rat plasma
[12] = CSF (relative to plasma), administered stereoisomer, 20 mg/kg p.o., AUCCSF/AUCPlasma, read-out: Kp,CSF (CSF-to-plasma partition coefficient)
[13] = brain (relative to plasma), administered stereoisomer, 20 mg/kg p.o., AUCBrain/AUCPlasma, read-out: Kp,Brain (brain-to-plasma partition coefficient)
[14] = 20 mg/kg, administered stereoisomer, 20 mg/kg p.o., rat plasma

CC[C@H]1CN2CC[C@@]3(C(=O)Nc4ccccc43)[C@@H]2C[C@@H]1/C(=C\OC)C(=O)OC [IRN, Isorhynchophylline]
Cmax, CSF [1, 6]: 2.14 ± 0.34 ng/mL | AUC0-180 min, brain [1, 7]: 627.37 ± 43.31 ng·min/g | Cmax, brain [1, 7]: 7.35 ± 0.74 ng/g | Administered IRN metabolically converted to RN ([1]; after oral administration of IRN 20 mg/kg, rats): at least 47% | AUC0-180 min, brain [1, 8]: 140.76 ± 1.50 ng·min/g | AUC(0-t) [1, 9]: 41.4 ng·h/mL | AUC(0-t) [1, 10]: 3.4 ng·h/mL | Cmax [1, 11]: 31.3 ± 1.59 ng/mL | half-life [1, 11]: 64.3 ± 3.19 min | Kp [1, 12]: 0.0821 ± 0.005 | Kp [1, 13]: 0.253 ± 0.0187 | Tmax [1, 14]: ≤ 30 min | Inhibition of EphA4 (EphA4): not | pKa [2]: 5.20 | Metabolism in rat liver microsomes [3]: much more favorable to be metabolized than RN | Bioavailability [4]: 3.3 ± 0.8% | Neuroprotective activity against glutamate-induced HT22 cell injury (HT22 cell): significant neuroprotective activity | Cognitive deficits induced by Aβ25-35 [5]: ameliorated cognitive deficits

CC[C@H]1CN2CC[C@]3(C(=O)Nc4ccccc43)[C@@H]2C[C@@H]1/C(=C\OC)C(=O)OC [RN, rhynchophylline]
Cmax, CSF [1, 6]: 7.39 ± 0.17^∗∗∗ ng/mL | Cmax, brain [1, 7]: 16.96 ± 1.92^∗∗ ng/g | AUC0-180 min, brain ([1]; administered stereoisomer, 20 mg/kg p.o., 20 mg/kg): 1587.03 ± 127.82 ng·min/g and 1587.03 ± 127.82^∗∗ ng·min/g | AUC0-180 min, brain [1, 8]: 296.63 ± 9.49^∗∗ ng·min/g | AUC(0-t) [1, 9]: 273 ng·h/mL | AUC(0-t) [1, 10]: 12.4 ng·h/mL | Cmax [1, 11]: 191 ± 6.34 ng/mL | half-life [1, 11]: 130 ± 9.3 min | Kp [1, 12]: 0.0453 ± 0.0002 | Kp [1, 13]: 0.0967 ± 0.0063 | Tmax [1, 14]: ≤ 30 min | Inhibition of EphA4 (EphA4): potent inhibitor | Long-term potentiation in the hippocampus (APP/PS1 transgenic mice): restored the impaired long-term potentiation | Membrane permeability, effect of P-gp efflux (P-gp efflux transporter): affected by P-gp efflux transporter | pKa [2]: 6.32 | Bioavailability [4]: 25.9 ± 8.7% | Neuroprotective activity against glutamate-induced HT22 cell injury (HT22 cell): weak effect
